Results from ChEMBL document CHEMBL3400111, “Synthesis and melanogenesis evaluation of 3',4',7-trihydroxyflavanone derivatives and characterization of flavanone-BODIPY” (Bioorg Med Chem Lett, 2015).
Calls of active or inactive are those of the source. No cut-off for these calls is given here.

Legend:
B16-F10 [1] = experiment: Induction of melanin synthesis in mouse B16F10 cells after 48 hrs by fluorescence microscopy relative to control; assay type: functional; set-up: concentration or dose not given beside the values
Mus musculus [2] = experiment: Induction of melanogenesis in C57BL/6 depigmentation mouse assessed as increase in melanin content of hair follicle on depigmented skin at 1.6 to 4.8 mg/kg, ip for 2 weeks by H&E stainig-based histomorphology; assay type: functional, organism-based
Mus musculus [3] = experiment: Induction of melanogenesis in C57BL/6 depigmentation mouse assessed as increase in TRP-2 protein expression at 1.6 to 4.8 mg/kg, ip for 2 weeks measured on day 12 by H&E staining-based histomorphology; assay type: functional, organism-based
Mus musculus [4] = experiment: Induction of melanogenesis in C57BL/6 depigmentation mouse assessed as increase in TRP-1 protein expression at 1.6 to 4.8 mg/kg, ip for 2 weeks measured on day 12 by H&E staining-based histomorphology; assay type: functional, organism-based
Mus musculus [5] = experiment: Induction of melanogenesis in C57BL/6 depigmentation mouse assessed as increase in MITF protein expression at 1.6 to 4.8 mg/kg, ip for 2 weeks measured on day 12 by H&E staining-based histomorphology; assay type: functional, organism-based
Mus musculus [6] = experiment: Induction of melanogenesis in C57BL/6 depigmentation mouse assessed as increase in tyrosinase protein expression at 1.6 to 4.8 mg/kg, ip for 2 weeks measured on day 12 by H&E staining-based histomorphology; assay type: functional, organism-based
B16-F10 [7] = experiment: Induction of melanogenesis in mouse B16F10 cells at 0.01 to 10 uM after 48 hrs by fluorescence microscopy relative to control; assay type: functional, cell-based
[8] = Cellular uptake in mouse B16F10 cells at 0.1 uM after 4 hrs by confocal imaging analysis in presence of 0.1 to 1 uM 3',4',7-trihydroxyflavaonone; assay type: ADME, cell-based; conditions: b16-f10, 4 h
[9] = Drug uptake in mouse B16F10 cell nucleus at 0.1 uM after 4 hrs by DAPI staining-based confocal imaging analysis; assay type: ADME; conditions: b16-f10, 4 h
[10] = Drug uptake in mouse B16F10 cell endoplasmic reticulum at 0.1 uM after 4 hrs by ER-tracker Red staining-based confocal imaging analysis; assay type: ADME; conditions: b16-f10, 4 h

SMILES	Activity (B16-F10 [1])	also measured
COc1ccc2c(c1)OC(c1ccc(OC(=O)c3ccccc3)c(OC(=O)c3ccccc3)c1)CC2=O (centres undefined)	121.43%	
CCCCCCCCCCCCCC(=O)Oc1ccc(C2CC(=O)c3ccc(OC)cc3O2)cc1O (centres undefined)	44.63%	
C=CCOc1ccc(C2CC(=O)c3ccc(OC)cc3O2)cc1OCC=C (centres undefined)	91.19%	
CCCCCCCCCCCC(=O)Oc1ccc(C2CC(=O)c3ccc(OC)cc3O2)cc1OC(=O)CCCCCCCCCCC (centres undefined)	89.54%	
COc1ccc2c(c1)OC(c1ccc(O)c(O)c1)C/C2=N/O (centres undefined)	134.71%	Activity (Mus musculus [2]): Active; Activity (Mus musculus [3]): Active; Activity (Mus musculus [4]): Active; Activity (Mus musculus [5]): Active; Activity (Mus musculus [6]): Active
CCCCCCCCCCCC(=O)Oc1ccc(C2CC(=O)c3ccc(OC)cc3O2)cc1O (centres undefined)	74.13%	
CC1=CC(C)=[N+]2C1=C(CCC(=O)N/N=C1\CC(c3ccc(O)c(O)c3)Oc3cc(O)ccc31)c1c(C)cc(C)n1[B-]2(F)F (centres undefined)		Activity (B16-F10 [7]): Active; Drug uptake [8]: Not Active; Drug uptake [9]: Active; Drug uptake [10]: Active
COc1ccc2c(c1)OC(c1ccc(OC(=O)c3ccc(C)cc3)c(OC(=O)c3ccc(C)cc3)c1)CC2=O (centres undefined)	113.49%	
CCC(=O)Oc1ccc(C2CC(=O)c3ccc(OC)cc3O2)cc1OC(=O)CC (centres undefined)	133.65%	
COc1ccc2c(c1)OC(c1ccc(OC(=O)c3ccco3)c(OC(=O)c3ccco3)c1)CC2=O (centres undefined)	96.11%	
COc1ccc2c(c1)OC(c1ccc(OS(=O)(=O)c3ccc(C)cc3)c(OS(=O)(=O)c3ccc(C)cc3)c1)CC2=O (centres undefined)	100.52%	
COc1ccc2c(c1)OC(c1ccc(OC(=O)c3ccc(Cl)cc3)c(OC(=O)c3ccc(Cl)cc3)c1)CC2=O (centres undefined)	121.98%	
COc1ccc2c(c1)OC(c1ccc(O)c(O)c1)CC2=O (centres undefined)	110.31%	
COc1ccc2c(c1)OC(c1ccc(OC(=O)c3ccccc3Cl)c(OC(=O)c3ccccc3Cl)c1)CC2=O (centres undefined)	119.46%	
COc1ccc2c(c1)OC(c1ccc(OC(=O)c3ccc(F)cc3)c(OC(=O)c3ccc(F)cc3)c1)CC2=O (centres undefined)	111.79%	
COc1ccc2c(c1)OC(c1ccc(OC(C)=O)c(OC(C)=O)c1)CC2=O (centres undefined)	132.3%	
